Paper PMC10057480, “Expanding the Library of 1,2,4-Oxadiazole Derivatives: Discovery of New Farnesoid X Receptor (FXR) Antagonists/Pregnane X Receptor (PXR) Agonists” (Molecules, 2023)
Several values for one entry are separate records, joined by “and”; a condition that tells them apart may be missing. Equal values may be shown once.

Key:
FXR = target: T1, FXR (Homo sapiens, UniProt Q96RI1); assay: FXR luciferase reporter transactivation assay (antagonism) on HepG2 cells; type: cell-based; conditions: at least three experiments; for FXR Antagonism Eff (%): HepG2 transactivation, compounds at 50 μM, percent inhibition of transactivation set at 100%, mean ± SD; for IC50: transactivation assay, concentration-response, mean ± SEM
T1 construct: expressed in transfected cells; host or cells: HepG2
T1 sequence (Q96RI1 1-486): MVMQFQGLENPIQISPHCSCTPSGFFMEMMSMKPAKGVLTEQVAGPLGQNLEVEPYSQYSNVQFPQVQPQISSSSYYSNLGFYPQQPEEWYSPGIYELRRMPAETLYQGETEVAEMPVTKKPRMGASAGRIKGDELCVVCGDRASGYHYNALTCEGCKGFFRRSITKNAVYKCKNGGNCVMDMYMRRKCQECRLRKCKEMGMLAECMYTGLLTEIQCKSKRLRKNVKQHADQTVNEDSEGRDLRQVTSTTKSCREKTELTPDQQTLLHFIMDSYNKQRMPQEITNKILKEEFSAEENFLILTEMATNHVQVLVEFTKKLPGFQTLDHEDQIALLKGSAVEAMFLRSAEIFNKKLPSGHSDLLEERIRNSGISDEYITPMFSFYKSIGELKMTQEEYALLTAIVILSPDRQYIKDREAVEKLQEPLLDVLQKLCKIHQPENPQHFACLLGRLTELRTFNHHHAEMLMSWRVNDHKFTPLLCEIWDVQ
Experimental: The antagonistic activity on FXR was investigated using HepG2 cells transfected with 100 ng of pSG5-FXR and pSG5-RXR, 200 ng of the reporter vector p(hsp27)-TK-LUC containing the FXR response element, and 100 ng of the pGL4.70 vector encoding the human Renilla gene used as a transfection control. […] In another experimental setting, HepG2 cells were transfected using 100 ng of pSG5-PXR, 100 ng of pSG5-RXR, and 100 ng of pGL4.70, along with the reporter vector pGL3(henance)PXRE. At 24 h post-transfection, cells were stimulated with rifaximin 10 μM (as a positive control) or compounds 2–11 (10 μM). The specificity of compounds 5 and 11 versus FXR and PXR was tested using HepG2 cells transiently transfected with 200 ng of the reporter vector p(UAS)5XTKLuc, 100 ng of a vector containing the ligand binding domain of LXRα or LXRβand 100 ng of pGL4.70, a vector encoding the human Renilla gene. At 24 h post-transfection, cells were stimulated for 18 h with GW3965 (5 μM), compounds 5 and 11 (10 μM), and the combination of GW3965 plus 5 or 11 (50 μM). Cellular lysate was assayed for luciferase and Renilla activities after 18 h using the Dual-Luciferase Reporter assay system (E1980, Promega, Madison, WI, USA). The activity of luciferase was measured using the Glomax 20/20 luminometer (Promega, Madison, WI, USA) and normalized with Renilla activities.

PXR = target: T2, PXR (Homo sapiens, UniProt O75469); assay: PXR luciferase reporter transactivation assay (agonism) on HepG2 cells; type: cell-based; conditions: compound 10 μM, maximal transactivation compared to Rifaximin 10 μM, mean ± SD, at least three experiments
T2 construct: expressed in transfected cells; host or cells: HepG2
T2 sequence (O75469 1-434): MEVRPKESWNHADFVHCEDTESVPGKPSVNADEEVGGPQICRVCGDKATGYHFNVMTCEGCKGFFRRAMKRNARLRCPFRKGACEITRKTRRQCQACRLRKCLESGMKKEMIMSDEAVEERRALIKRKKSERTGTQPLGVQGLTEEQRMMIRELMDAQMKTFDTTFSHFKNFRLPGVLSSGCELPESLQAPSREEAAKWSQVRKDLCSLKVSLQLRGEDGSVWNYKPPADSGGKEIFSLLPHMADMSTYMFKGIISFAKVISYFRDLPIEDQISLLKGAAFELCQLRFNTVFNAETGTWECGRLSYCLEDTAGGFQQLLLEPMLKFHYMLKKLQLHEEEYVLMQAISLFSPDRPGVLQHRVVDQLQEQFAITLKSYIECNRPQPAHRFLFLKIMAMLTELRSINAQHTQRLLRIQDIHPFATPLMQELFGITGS
T2 sequence (P19793 1-462 partner): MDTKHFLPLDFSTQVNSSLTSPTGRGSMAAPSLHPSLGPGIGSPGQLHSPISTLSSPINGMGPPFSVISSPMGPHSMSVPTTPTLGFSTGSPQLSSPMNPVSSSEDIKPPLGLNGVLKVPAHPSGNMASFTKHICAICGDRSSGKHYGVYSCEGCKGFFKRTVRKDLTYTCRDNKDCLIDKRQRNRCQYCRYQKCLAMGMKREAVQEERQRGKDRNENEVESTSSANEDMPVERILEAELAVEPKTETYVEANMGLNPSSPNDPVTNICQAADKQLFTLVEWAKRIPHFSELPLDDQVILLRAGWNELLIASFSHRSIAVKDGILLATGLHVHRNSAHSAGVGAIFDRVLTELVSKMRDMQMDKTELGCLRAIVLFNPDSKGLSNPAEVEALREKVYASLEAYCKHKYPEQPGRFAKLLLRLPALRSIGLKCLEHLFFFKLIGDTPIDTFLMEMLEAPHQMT
Experimental: The antagonistic activity on FXR was investigated using HepG2 cells transfected with 100 ng of pSG5-FXR and pSG5-RXR, 200 ng of the reporter vector p(hsp27)-TK-LUC containing the FXR response element, and 100 ng of the pGL4.70 vector encoding the human Renilla gene used as a transfection control. Cells were stimulated with the agonist 6-ECDCA (10 µM) alone or in combination with compounds 2–11 after 24 h. In another experimental setting, HepG2 cells were transfected using 100 ng of pSG5-PXR, 100 ng of pSG5-RXR, and 100 ng of pGL4.70, along with the reporter vector pGL3(henance)PXRE. At 24 h post-transfection, cells were stimulated with rifaximin 10 μM (as a positive control) or compounds 2–11 (10 μM). The specificity of compounds 5 and 11 versus FXR and PXR was tested using HepG2 cells transiently transfected with 200 ng of the reporter vector p(UAS)5XTKLuc, 100 ng of a vector containing the ligand binding domain of LXRα or LXRβand 100 ng of pGL4.70, a vector encoding the human Renilla gene. At 24 h post-transfection, cells were stimulated for 18 h with GW3965 (5 μM), compounds 5 and 11 (10 μM), and the combination of GW3965 plus 5 or 11 (50 μM). Cellular lysate was assayed for luciferase and Renilla activities after 18 h using the Dual-Luciferase Reporter assay system (E1980, Promega, Madison, WI, USA). The activity of luciferase was measured using the Glomax 20/20 luminometer (Promega, Madison, WI, USA) and normalized with Renilla activities.

Row | FXR Antagonism Eff (%) (FXR) | IC50 (FXR) | PXR Agonism Eff (%) (PXR) | Structure (SMILES)
1 | 66% and 66 ± 1% | 8.4 ± 2 µM | 71% and 71 ± 4% | CCCCCN1CCC(c2nc(-c3ccc4ccccc4c3)no2)CC1 [Compound 5, 3-(Naphthalen-2-yl)-5-(1-pentylpiperidin-4-yl)-1,2,4-oxadiazole]
2 | 72% and 72 ± 6% | 4.4 ± 0.4 µM | 105% and 105 ± 15% | OCc1ccc(CN2CCC(c3nc(-c4ccc5ccccc5c4)no3)CC2)cc1 [Compound 11, 5-[1-(4-(Hydroxymethyl)benzyl)piperidin-4-yl]-3-(naphthalen-2-yl)-1,2,4-oxadiazole]
